Laboratory results from patent US11369616B2, “Drug combination and its use in therapy” (Proximagen, LLC, priority 2016, dated 2022).

Assays:
Assay type in all cases: in vivo, mice
[1] = test system: EMT6; assay: Syngeneic subcutaneous tumour growth inhibition, EMT6 (Study 2); conditions: Breast, EMT6, SDF-1 42 FPKM; 641 50 mg/kg p.o. 5 days out of 7; anti-PD1 10 mg/kg i.p. twice weekly for 3 weeks; vs vehicle group
Experimental: (§1) Four syngeneic cell lines (EMT-6, H22, CT26, B16F10small) were cultured and when in exponential growth were inoculated in mice subcutaneously with tumour cells in 0.1 mL of PBS for tumour development. After the mean tumour size reached approximately 80-120 mm^3 the mice were treated with anti-PD1 antibody (clone RMP1-14) (10 mg/kg i.p. twice weekly for 3 weeks) or 6-{4-[1-(Propan-2-yl)piperidin-4-yl]-1,4-diazepan-1-yl}-N-(pyridin-4-yl)pyridine-2-carboxamide (50 mg/kg p.o. 5 days out of 7), or a combination of the two treatments. Tumour volumes were measured twice weekly at least in two dimensions using a caliper, and the volume expressed in mm^3 using the formula: V=0.5 a×b^2 where a and b are the long and short diameters of the tumour, respectively. Tumour growth was measured and inhibition of tumour growth reported in comparison to a vehicle treated group. All groups contained 8 mice. If the tumours in a group reached an average volume of 2000 mm^3, the experiment was terminated.
(§2) SDF-1 levels were measured by RNA sequencing and are expressed as fragments read per million mapped reads per kilobase of transcript (FPKM). FPKM is normalised to all the fragments read and to the length of the genes, and so is in effect a ratio of the number of SDF-1 reads to all the other genes read multiplied by one million.

[2] = test system: H22; assay: Syngeneic subcutaneous tumour growth inhibition, H22 (Study 2); conditions: Liver, H22, SDF-1 26 FPKM; 641 50 mg/kg p.o. 5 days out of 7; anti-PD1 10 mg/kg i.p. twice weekly for 3 weeks; vs vehicle group
Experimental: as §1, §2

[3] = test system: CT26; assay: Syngeneic subcutaneous tumour growth inhibition, CT26 (Study 2); conditions: Colorectal, CT26, SDF-1 17 FPKM; 641 50 mg/kg p.o. 5 days out of 7; anti-PD1 10 mg/kg i.p. twice weekly for 3 weeks; vs vehicle group
Experimental: as §1, §2

[4] = test system: B16F10 small; assay: Syngeneic subcutaneous tumour growth inhibition, B16F10 small (Study 2); conditions: Melanoma, SDF-1 4 FPKM, 641 50 mg/kg p.o. 5 days out of 7, anti-PD1 10 mg/kg i.p. twice weekly for 3 weeks, vs vehicle group
Experimental: as §1, §2

CC(C)N1CCC(N2CCCN(c3cccc(C(=O)Nc4ccncc4)n3)CC2)CC1 [compound 641, 6-{4-[1-(Propan-2-yl)piperidin-4-yl]-1,4-diazepan-1-yl}-N-(pyridin-4-yl)pyridine-2-carboxamide] was tested. Which “% inhibition of tumour growth relative to control” value [1] did it give?
Its value is 79.8%.

What about the “% inhibition of tumour growth relative to control” value [2] of the same compound?
The value was 20.1%.

And the “% inhibition of tumour growth relative to control” value [3]?
The value was 32.1%.

And the “% inhibition of tumour growth relative to control” value [4]?
Its value is 0%.
